The record followed here is US12054510B2, “2′ and/or 5′ amino-acid ester phosphoramidate 3′-deoxy adenosine derivatives as anti-cancer compounds” (Nucana plc, priority 2014, dated 2024).

This experiment deals with BxPC-3-Luc. The experiment can be described thus: Solid tumour and haematological malignancy assay (CellTiterGlo). The experiment is classed as cell-based. The following applies: 72 hr, Table VII. As for the experimental part: In vitro viability assay were performed to assess the effects of compounds on cell viability in selected cell lines over 72 hr using the CellTiterGlo (CTG, Promega-G7573) assay. The tests were performed in duplicates with treatment of compounds at 9 points, 3.16 folds titration in 96 well plates over ˜72 hr. The compound starting concentrations were […]. Cell viability assay using CellTiterGlo in 96-well plate were performed. Compound treatment 72 hrs, standard growth conditions, duplicates. Compounds were dissolved to 40 mM with thawed […]. Compounds were serially diluted at 3.16 fold in thawed DMSO, and warmed to 37° C. before being dissolved in media (2 μl+200 μl). After compounds were dissolved in media, media containing compounds were warmed to 37° C. in incubator and then compounds in media were added to cell plates (50 μl+50 μl) in duplicates. The compounds' final concentrations were from 198M to 19.9 nM. All compound solubilities were checked and recorded again, then the plates were transferred to CO2 tissue culture incubator immediately and incubated for 3 days. DMSO final concentration is 0.5%.
A general note: In ATP-based viability assays light output follows the ATP content of the culture.

Turning to `CC(NP(=O)(OC[C@@H]1C[C@@H](O)[C@H](n2cnc3c(N)nc(Cl)nc32)O1)Oc1cccc2ccccc12)C(=O)OCc1ccccc1` (stereo in doubt) [S, (2R)-benzyl 2-((((2S,4R,5R)-5-(6-amino-2-chloro-9H-purin-9-yl)-4-hydroxytetrahydrofuran-2-yl)methoxy)(naphthalen-1-yloxy)phosphorylamino)propanoate], the MI % is 82.6%.

For `Nc1nc(Cl)nc2c1ncn2[C@@H]1O[C@H](CO)C[C@H]1O` [2-Cl-cordycepin, 3′-deoxy-2-chloroadenosine, reference compound], the MI % is given as −1.3%.
